Test results from patent publication US20130116224A1, “Method and Composition for Treatment of Tumors” (priority 2010, published 2013).

What was measured:
Malme-3M [1] = test: In vitro anti-cancer efficacy study of CTC-96, ATCC recommended growth condition (protocol GP687), cell viability and proliferation assay (RFU); type: cell-based, human; details: day 2, 20 μg/mL CTC-96, FIG. 2C, ATCC recommended medium
Description: (§1) B. In Vitro Anti-Cancer Efficacy Study of CTC-96 in Cell Lines Maintained in ATCC Recommended Growth Condition Using Approved Protocol GP687
(§2) For example in FIG. 2C, on day 2 with 20 μg/mL CTC-96. […] This difference among the cell lines was quite consistent at all initial seeding densities except for the highest (100%). At the three lower density seedings, the decrease in relative fluorescence units (RFU) was in a near linear relationship with increase of CTC-96 dose for LNCaP and RWPE cells. Both cell types began to show a response to CTC-96 at 5 μg/mL. (see FIGS. 2 C and D).
(§3) When cell proliferation data were obtained for all time points, the RFU reading on day 3 was considerably lower than the projected trend line as shown in FIG. 1. The possible cause was the variation in the incubation time as described in GP687 9.5.2.3. […] Due to time constraints, the incubation time carried out was shorter on day three than for the […]. The longer the incubation time, the greater the RFLI measured. Therefore, day 3 incubation data were not included in the analysis, see FIG. 2. […] Different cell density seedings allowed this study to maximally evaluate the anticancer efficacy of CTC-96. In vitro anticancer effectiveness can be categorized into: killing and inhibiting effects. High density seeding provides maximal numbers of cells to reveal the killing effect, which leads to extensive cell death with quick onset. Also high cell density sometimes provides some protection against cytotoxic effects. Low density seeding reduces the effects of contact inhibition in non-malignant cell lines and allows longer incubation with the drug. The longer treatment time allows observation of maximum inhibitory drug effects. In addition, low density cell seeding allows untreated cells to undergo several cell divisions.
(§4) In this study, four seeding densities of 100%, 50%, 25% and 12.5% were planned for each cell line.

LNCaP [2] = test: as above; type: cell-based, human
Description: as §1, §2, §3, §4

Malme-3M [3] = test: CTC-96 7-day treatment in RPMI1640/2% FBS (GP689 modified) and confirmation study, cell viability and proliferation assay; type: cell-based, human
Description: (§5) The study was performed as described in GP689 with modifications as follows:
(§6) The cell growth and test media was RPM11640/2% FBS. All cell lines were acclimated in this low-serum condition for about two weeks prior to treatment with CTC-96. CTC-96 treatment was extended to 7 days from the 3 days previously used. Cell viability and proliferation was measured and medium was changed on day 0, 2, 4 and 7. Fresh CTC-96 added during every medium change. Incubation for cell viability and proliferation assay was performed for 2 hours.
(§7) A new batch of all four test cell lines were acclimated in RPMII 640/2% FBS about 10 days prior to CTC-96 treatment. CTC-96 treatment started after […] of adaptation. A 96-well plate was used at the at the start of proliferation in an attempt to eliminate the peeling of LNCaP monolayers. A manual multichannel pipette was utilized to change medium on day 0. Peeling still occurred in one plate. That plate was arbitrarily assigned the last time point day 7 in order to have good plates of LNCaP for the first three time points in a row.
(§8) For medium changes on days 2, 4 and 7, only half of the media was replaced to completely eliminate the peeling in LNCaP. This method was utilized for the other three cell lines in order to keep the entire test system consistent for all the cell lines. The replacement media contained 1×CTC-96 concentrations and therefore only half of CTC-96 was freshly replaced. Incubation for cell viability and proliferation assay was performed for strictly 2 hours. Allover proliferation was good for all cell lines (see FIG. 6). Untreated ENCaP cells became 100% confluent in all seeding conditions on day 7. […] 4.2.5.2.1.3. The day 4 RFU reading was chosen in the proliferation percentage analysis because the peeling off in LNCaP Day 7 plate led to decrease on RFU so much that the trendline of untreated cells turned downwards instead of plateauing in high density seeding, (see FIG. 6 Al 3). Decay of CTC-96 may occur over 7 days period and inhibition might be lowered towards the end of treatment. The upward turn of the trendline for malignant cell lines in 5 μg/mL may indicate this decay, (see FIG. 6 A2-3, CI-4). Malignant cell lines were more sensitive to CTC-96 than their sister normal cell lines.

LNCaP [4] = test: as above; type: cell-based, human
Description: as §5, §6, §7, §8

IMR 90 = test: as above; type: cell-based
Description: as §5, §6, §7, §8

RWPE-1 = test: as above; type: cell-based
Description: as §5, §6, §7, §8

IMR = test: In vitro anti-cancer efficacy study of CTC-96, ATCC recommended growth condition (protocol GP687), cell viability and proliferation assay (RFU); type: cell-based; details: day 2, 20 μg/mL CTC-96, FIG. 2C, ATCC recommended medium
Description: as §1, §2, §3, §4

RWPE = test: as above; type: cell-based
Description: as §1, §2, §3, §4

[5] = 20 μg/mL CTC-96, day 2 vs day 0
[6] = FIGS. 2C and D, lower density seedings
[7] = day 2, 20 μg/mL CTC-96, FIG. 2C, ATCC recommended medium

CC(/C=C(/C)[O-])=NCCN=C(C)/C=C(/C)[O-].Cc1ncc[nH]1.Cc1ncc[nH]1.[Br-].[Co+3] [CTC-96]
total cells in comparison to untreated controls (Malme-3M [1]): 70% | killing effect (net cell loss) (LNCaP [2]; [5]): lower number of cell on day 2 than on day 0 | concentration at which cells began to show a response (LNCaP [2]; [6]): 5 µg/mL | total cells in comparison to untreated controls (LNCaP [2]; [7]): 12% | proliferation (Malme-3M [3]; Malme 3M, 1 μg/mL): ceases proliferating | cell elimination / proliferation (Malme-3M [3]; Malme 3M, 5 μg/mL drug concentration): not killed, but stopped proliferating | cell number relative to originally seeded (Malme-3M [3]; Malme-3M, 5 μg/mL CTC-96, RPMI1640/2% FBS, 7-day treatment, FIG. 4C): almost no change, or even had fewer cells than originally seeded | inhibition (proliferation percentage, day 4 RFU) (Malme-3M [3]; Malme-3M, 5 μg/mL, confirmation study, FIG. 7): greater inhibition | cell number relative to originally seeded (LNCaP [4]; 5 μg/mL CTC-96, RPMI1640/2% FBS, 7-day treatment, FIG. 4A): almost no change, or even had fewer cells than originally seeded | inhibition (proliferation percentage, day 4 RFU) (LNCaP [4]; 5 μg/mL, confirmation study, FIG. 7): greater inhibition | proliferation (LNCaP [4]; 25% cell density, 5 t μm/mL): proliferation completely ceases | proliferation diminished (LNCaP [4]; 50% cell density, 5 μm/mL CTC-96, RPMI 1640/2% FBS): 30-40% | decrease in cell number compared to un-treated controls (LNCaP [4]; initial seeding densities of 50% and 25%, 5 μm/mL CTC-96): 30-50% | proliferation (IMR 90; IMR 90, 5 μg/mL): continues proliferating | proliferation (IMR 90; IMR, 10 μg/mL CTC-96, RPMI1640/2% FBS, 7-day treatment): inhibited the proliferation | inhibition (proliferation percentage, day 4 RFU) (IMR 90; IMR, 10 μg/mL, confirmation study, FIG. 7): lower degree of inhibition | proliferation (RWPE-1; RWPE, 10 μg/mL CTC-96, RPMI1640/2% FBS, 7-day treatment): inhibited the proliferation | inhibition (proliferation percentage, day 4 RFU) (RWPE-1; RWPE, 10 μg/mL, confirmation study, FIG. 7): lower degree of inhibition | proliferation (RWPE-1; RWPE-1, 25% cell density, 5 t μm/mL): still proceeds proliferating, albeit, at a reduced rate | proliferation (RWPE-1; RWPE-1, 50% cell density, same drug concentration (5 μm/mL)): minimally affected | cell elimination (cell loss) (RWPE-1; RWPF-1 (non-malignant counterpart), seeding densities 50% and 25%, concentration that killed the malignant cell line): no cell loss | total cells in comparison to untreated controls (IMR): 72% | killing effect (net cell loss) (RWPE; [5]): lower number of cell on day 2 than on day 0 | concentration at which cells began to show a response (RWPE; [6]): 5 µg/mL | total cells in comparison to untreated controls (RWPE; [7]): 10%
